Assay results taken from PMC10089224, “A macrocyclic peptide inhibitor traps MRP1 in a catalytically incompetent conformation” (Proceedings of the National Academy of Sciences of the …, 2023).
“Also recorded” adds a separate entry of the source. Where a SMILES comes first, the peptide text is derived from it. Bridges are numbered along the chain shown (N, C = ends). [ ]: non-standard residue; d: D form.

Assays:
Pgp = assay: ATPase activity of detergent-solubilized Pgp, inhibition by CPI1; type: biochemical, human; settings: Pgp 0.5 µM, 4 mM ATP, CPI1 25-fold molar excess; mean ± SE of three separate measurements
Method: (§1) Fig. 1. Identification of an MRP1-specific inhibitor. (A) Selection strategy for novel cyclic peptide MRP1 ligands. eGFP: enhanced green fluorescent protein; Nb: anti-eGFP nanobody. (B) CPI1 composition. The first residue in the sequence (Ac^DY1, yellow) is covalently bonded to the 17th residue (C17, green) via a thioether linkage. […] All values reported as the mean ± standard error (SE) of three separate measurements. The statistical significance was calculated using unpaired, parametric, two-sided t tests. Labels: not significant (n.s.), P < 0.05 (*), P < 0.01 (**), P < 0.001 (***) P < 0.0001 (****). […] (D) Dose–response curves of the basal and LTC4-stimulated ATPase activity of bMRP1. Rates of ATP hydrolysis were normalized to maximal activity. Data were fit to a modified version of the quadratic binding equation to account for free ligand depletion (Materials and Methods).
(§2) Bovine and human MRP1, as well as human Pgp, were expressed and purified as described previously. […]
(§3) ATPase activity was measured by recording the rate of NADH consumption during ATP regeneration from ADP. […] NADH consumption was measured by monitoring the rate of NADH fluorescence depletion (λex/λem 340/445 nm) using an Infinite M1000 microplate reader (Tecan) at 28 °C. […]

hMRP1 = assay: ATPase activity of detergent-solubilized hMRP1, inhibition by CPI1; type: biochemical, human; settings: Fig. 1C: 1 µM hMRP1, 4 mM ATP, CPI1 25-fold molar excess
Method: as §1, §2, §3

bMRP1 = target: T1, bMRP1 (Bos taurus, UniProt Q8HXQ5); assay: ATPase activity of detergent-solubilized bMRP1, inhibition by CPI1 (basal and LTC4-stimulated); type: biochemical, bovine
T1 construct: eGFP (C, cleaved yes); PreScission protease site (remnant after cleavage) (C); made in house; host or cells: HEK293S GnTI- cells infected with baculovirus (BacMam) made in Sf9 cells
T1 sequence (Q8HXQ5 whole entry): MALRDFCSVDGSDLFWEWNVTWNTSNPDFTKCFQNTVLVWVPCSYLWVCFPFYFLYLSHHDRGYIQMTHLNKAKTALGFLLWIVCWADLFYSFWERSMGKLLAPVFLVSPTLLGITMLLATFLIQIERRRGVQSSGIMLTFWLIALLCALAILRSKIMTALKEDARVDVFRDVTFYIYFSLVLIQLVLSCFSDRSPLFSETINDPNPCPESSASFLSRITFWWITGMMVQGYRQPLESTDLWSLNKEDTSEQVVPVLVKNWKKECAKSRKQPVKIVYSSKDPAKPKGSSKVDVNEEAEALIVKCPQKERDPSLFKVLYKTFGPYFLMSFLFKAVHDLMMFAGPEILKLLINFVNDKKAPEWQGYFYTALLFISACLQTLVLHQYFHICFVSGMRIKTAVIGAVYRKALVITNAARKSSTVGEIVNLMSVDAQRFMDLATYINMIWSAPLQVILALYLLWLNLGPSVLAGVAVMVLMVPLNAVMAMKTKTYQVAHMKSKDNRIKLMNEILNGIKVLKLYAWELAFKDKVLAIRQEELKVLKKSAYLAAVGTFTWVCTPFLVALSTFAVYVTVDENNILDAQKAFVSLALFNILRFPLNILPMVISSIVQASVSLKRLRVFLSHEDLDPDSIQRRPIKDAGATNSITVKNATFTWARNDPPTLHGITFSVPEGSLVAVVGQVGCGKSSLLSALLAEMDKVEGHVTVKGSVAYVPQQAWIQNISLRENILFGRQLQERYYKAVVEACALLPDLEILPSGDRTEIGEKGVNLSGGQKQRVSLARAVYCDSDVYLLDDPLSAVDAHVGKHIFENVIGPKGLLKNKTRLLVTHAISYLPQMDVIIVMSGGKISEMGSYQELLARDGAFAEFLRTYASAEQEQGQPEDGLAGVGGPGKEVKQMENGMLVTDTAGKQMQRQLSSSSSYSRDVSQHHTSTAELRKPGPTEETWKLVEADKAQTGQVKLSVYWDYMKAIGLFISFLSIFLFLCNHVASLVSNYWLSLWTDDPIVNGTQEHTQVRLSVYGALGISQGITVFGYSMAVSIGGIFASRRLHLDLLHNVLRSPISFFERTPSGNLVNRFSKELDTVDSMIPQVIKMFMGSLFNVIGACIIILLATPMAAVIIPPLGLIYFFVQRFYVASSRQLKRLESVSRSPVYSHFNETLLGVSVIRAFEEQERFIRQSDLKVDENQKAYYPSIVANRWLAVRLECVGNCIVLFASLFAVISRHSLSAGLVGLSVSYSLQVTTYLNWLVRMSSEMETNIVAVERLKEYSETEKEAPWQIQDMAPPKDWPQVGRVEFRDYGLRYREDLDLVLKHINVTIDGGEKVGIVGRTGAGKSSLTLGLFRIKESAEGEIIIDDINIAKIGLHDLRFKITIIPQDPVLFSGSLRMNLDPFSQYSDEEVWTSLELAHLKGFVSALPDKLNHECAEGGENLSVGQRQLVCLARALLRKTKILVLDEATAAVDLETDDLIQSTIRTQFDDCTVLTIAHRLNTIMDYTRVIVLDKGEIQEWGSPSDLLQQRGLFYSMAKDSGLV
Method: All values reported as the mean ± standard error (SE) of three separate measurements. The statistical significance was calculated using unpaired, parametric, two-sided t tests. Labels: not significant (n.s.), P < 0.05 (*), P < 0.01 (**), P < 0.001 (***) P < 0.0001 (****). […] Rates of ATP hydrolysis were normalized to maximal activity. Data were fit to a modified version of the quadratic binding equation to account for free ligand depletion (Materials and Methods).
All protein purification steps were performed on ice or at 4 °C. Thawed cell pellets were resuspended with a handheld homogenizer (Polytron PT1200E) in a solution of 300 mM NaCl, 50 mM HEPES pH 8.0, 2 mM MgCl2, 2 mM dithiothreitol (DTT), and 20% glycerol with DNase I and protease inhibitors (1 µg/mL aprotinin, 0.6 mM benzamidine, 1 µg/mL leupeptin, 1 µg/mL pepstatin A, 1 mM phenylmethylsulfonyl fluoride, and 100 µg/mL soy trypsin inhibitor). Membranes were solubilized for 1.5 h by addition of 2% lauryl maltose neopentyl glycol and 0.2% cholesteryl hemisuccinate, after which insoluble material was removed by centrifugation for 40 min at 75,000 × g. Supernatant was mixed with GFP nanobody-conjugated Sepharose 4 Fast Flow resin (GE Healthcare) for 1.5 h, after which the slurry was packed into a column and washed with a solution of 0.06% digitonin, 150 mM NaCl, 50 mM HEPES pH 8.0, 2 mM MgCl2, 2 mM DTT, and 5% glycerol. PreScission protease was added to the column at a concentration of 0.35 mg/mL for 3 h to liberate MRP1 or Pgp from the GFP-nanobody resin. Eluate was passed through a glutathione sepharose resin to remove PreScission protease and concentrated with a 100 kDa molecular weight cutoff centrifugal filter. Concentrate was loaded onto a GE Healthcare Superose 6 size exclusion column equilibrated in 0.06% digitonin, 150 mM KCl, 50 mM Tris pH 8.0, 2 mM MgCl2, and 2 mM DTT. Peak fractions were collected, pooled, and concentrated for ATPase assays or freezing cryo-EM grids.
ATPase activity was measured by recording the rate of NADH consumption during ATP regeneration from ADP. […] ATPase activity was quantified by calculating the mean and SEM of at least three separate measurements from a single protein purification for each of bMRP1, hMRP1, and hPgp. Data were fit by nonlinear regression to the Michaelis–Menten equation using GraphPad Prism (Dotmatics).
0 = [R]tot × [L]tot - ([L]tot + [R]tot + Ki)[R·L] + [R·L]^2,
Range normalization factor = (Vmax - Vmin)

P-glycoprotein (Pgp) = settings: ref [26]–[28]; cited from earlier work
Text: Abrogation of cancer drug resistance by pharmacological inhibition of MRP1 has long been pursued ([10]). […] However, the majority of available MRP1 inhibitors are repurposed from other drug discovery efforts and thus have inherent off-target issues ([24], [25]).

Row | SMILES | inhibition of Pgp (in words) (Pgp) | inhibition of ATPase activity (in words) (hMRP1) | Ki (bMRP1) [µM] | affinity of CPI1 for MRP1 (bMRP1; approximate, Fig. 1D, compared with LTC4) | inhibition of ATPase activity (in words) (bMRP1; bMRP1, Fig. 1C: 1 µM bMRP1, 4 mM ATP, CPI1 25-fold molar excess) | mode of inhibition (in words) (bMRP1; with respect to LTC4, inferred from shared binding site in structure and affinity) | inhibition of P-glycoprotein (in words) (P-glycoprotein (Pgp))
1 | CC(C)C[C@@H]1NC(=O)[C@H](CC(N)=O)NC(=O)CNC(=O)[C@H](Cc2c[nH]c3ccccc23)NC(=O)[C@H](Cc2ccccc2)NC(=O)[C@@H](Cc2ccc(O)cc2)NC(=O)CSC[C@@H](C(=O)O)NC(=O)[C@H]([C@@H](C)O)NC(=O)[C@H](CO)NC(=O)[C@H](CC(=O)O)NC(=O)[C@H](Cc2ccccc2)NC(=O)[C@H](CCC(N)=O)NC(=O)[C@H](CCC(=O)O)NC(=O)[C@H](Cc2ccc(O)cc2)NC(=O)[C@H](Cc2ccc(O)cc2)NC(=O)[C@H](Cc2c[nH]c3ccccc23)NC(=O)[C@H](Cc2c[nH]cn2)NC1=O [CPI1] ({CH2CO}-[dY]FWGNLHWYYEQFDSTC-OH; thioether N-17; C-terminus assumed) | only modest inhibition of Pgp when applied at a 25-fold molar excess; also recorded: minimal inhibition of a related multidrug transporter P-glycoprotein | robust inhibition of hMRP1 ATPase activity | 0.07 ± 0.029 | ~ 100 nM | inhibited the ATPase activity of both human and bovine MRP1 | potent competitive inhibitor of LTC4 | 
2 | O=C(NCCCN1CCOCC1)c1cnn2c(-c3ccccc3)cc(-c3ccccc3)nc12 [Reversan] |  |  |  |  |  |  | also inhibit P-glycoprotein
